# Read-outs that look alike come from different tables or passages of the source.
# Legend:
# Assay in all cases: Dundee kinase screen re-test (standard format and 4 hour pre-incubation)
# Format in all cases: biochemical
# GSK3b = GSK3b (Homo sapiens, UniProt P49841)
# Description: (§1) Prior to determining its cellular activity, we carried out a screen to assess its selectivity against a panel of 131 protein kinases under conditions that would not distinguish between a reversible or irreversible mode of action. […] These 13 kinases and 29 additional kinases, selected for their known sensitivity to other inhibitors within the purine series, were then tested in a modified screening format in which the assay was repeated following a 4-hr pre-incubation (Table S3B). […] However, conformational flexibility around the active site may promote such an interaction with a residue from another part of the structure ([Martin et al., 2012]).
# (§2) Table S3, Related to Figure 4. NCL-0006300 protein kinase selectivity. […]
# (§3) Dundee protein kinase screen (Bain et al., 2007). […]
# (§4) (B) Selected kinases were re-tested in the Dundee kinase screen against NU6300 at a single concentration of 0.5 µM both in the standard assay format and following a 4 hour pre-incubation in the presence of NU6300. Kinases which have very low activity after the 4 hour incubation so that results might not be wholly reliable are boxed in salmon. Kinases where the activity after a 4 hour pre-incubation is < 50% that in the standard assay format are highlighted in red.
# MST4 = MST4 (Homo sapiens, UniProt Q9P289); conditions: MST4, 0.5µM
# Description: as §1, §2, §3, §4
# TTK = target: T1, TTK (Homo sapiens, UniProt P33981)
# T1 sequence (P33981 1-857): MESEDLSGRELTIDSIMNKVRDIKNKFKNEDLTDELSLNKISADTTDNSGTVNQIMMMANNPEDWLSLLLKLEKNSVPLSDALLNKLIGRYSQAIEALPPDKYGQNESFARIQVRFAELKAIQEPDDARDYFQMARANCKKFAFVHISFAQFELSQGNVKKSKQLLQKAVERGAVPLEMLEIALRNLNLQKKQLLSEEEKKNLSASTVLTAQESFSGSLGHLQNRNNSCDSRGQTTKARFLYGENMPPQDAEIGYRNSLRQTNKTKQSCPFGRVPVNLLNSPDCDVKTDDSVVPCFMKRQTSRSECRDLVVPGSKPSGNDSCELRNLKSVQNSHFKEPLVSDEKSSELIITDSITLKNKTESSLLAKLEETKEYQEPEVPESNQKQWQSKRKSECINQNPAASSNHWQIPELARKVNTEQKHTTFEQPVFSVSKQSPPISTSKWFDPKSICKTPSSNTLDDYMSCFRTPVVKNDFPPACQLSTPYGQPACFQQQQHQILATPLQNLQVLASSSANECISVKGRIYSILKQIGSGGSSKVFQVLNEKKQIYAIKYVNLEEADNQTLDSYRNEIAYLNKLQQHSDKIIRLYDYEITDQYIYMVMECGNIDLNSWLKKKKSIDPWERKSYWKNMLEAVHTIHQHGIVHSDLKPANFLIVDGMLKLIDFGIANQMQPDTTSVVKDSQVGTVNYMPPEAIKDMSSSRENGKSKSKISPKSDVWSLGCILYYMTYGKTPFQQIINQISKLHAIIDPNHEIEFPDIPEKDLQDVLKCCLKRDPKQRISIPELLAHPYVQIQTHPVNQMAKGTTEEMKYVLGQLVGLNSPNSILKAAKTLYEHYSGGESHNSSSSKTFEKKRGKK
# Description: as §1, §2, §3, §4
# CLK2 = CLK2 (Homo sapiens, UniProt P49760); conditions: CLK2, 0.5µM
# Description: as §1, §2, §3, §4
# IR = IR (Homo sapiens, UniProt P06213)
# Description: as §1, §2, §3, §4
# CHK1 = target: T2, CHK1 (Homo sapiens, UniProt O14757); conditions: CHK1, 0.5µM
# T2 sequence (O14757 1-476): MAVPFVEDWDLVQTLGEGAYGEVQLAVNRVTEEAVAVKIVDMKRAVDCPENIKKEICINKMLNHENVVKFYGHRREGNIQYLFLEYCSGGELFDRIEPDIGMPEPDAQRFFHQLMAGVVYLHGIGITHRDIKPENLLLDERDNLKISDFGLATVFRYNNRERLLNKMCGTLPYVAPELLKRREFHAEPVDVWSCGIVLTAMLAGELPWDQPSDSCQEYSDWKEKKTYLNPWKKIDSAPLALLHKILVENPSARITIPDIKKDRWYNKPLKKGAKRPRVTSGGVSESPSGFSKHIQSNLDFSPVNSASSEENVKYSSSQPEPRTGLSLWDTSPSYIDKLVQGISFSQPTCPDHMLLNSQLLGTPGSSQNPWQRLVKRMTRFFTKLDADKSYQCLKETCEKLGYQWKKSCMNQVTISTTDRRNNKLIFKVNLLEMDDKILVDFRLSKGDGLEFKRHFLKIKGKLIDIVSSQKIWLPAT
# Description: as §1, §2, §3, §4
# [1] = 4hr RT preincubation, read-out: %Remaining activity at 0.5µM NU6300 - 4hr RT preincubation
# [2] = usual format, read-out: %Remaining activity at 0.5µM NU6300 - Usual assay format
# Sequence of MST4 (Q9P289 whole entry): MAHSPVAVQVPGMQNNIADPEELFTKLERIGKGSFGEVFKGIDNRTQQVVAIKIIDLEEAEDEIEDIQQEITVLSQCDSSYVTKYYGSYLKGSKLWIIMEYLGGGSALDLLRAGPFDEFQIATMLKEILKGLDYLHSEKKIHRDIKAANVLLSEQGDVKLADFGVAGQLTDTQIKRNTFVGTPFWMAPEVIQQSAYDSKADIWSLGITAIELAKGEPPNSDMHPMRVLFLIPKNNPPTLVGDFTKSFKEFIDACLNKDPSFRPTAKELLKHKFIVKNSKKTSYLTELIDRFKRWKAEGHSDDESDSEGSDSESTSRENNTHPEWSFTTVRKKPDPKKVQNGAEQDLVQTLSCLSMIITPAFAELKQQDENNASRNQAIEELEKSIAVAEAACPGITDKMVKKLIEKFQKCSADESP
# Sequence of GSK3b (P49841 whole entry): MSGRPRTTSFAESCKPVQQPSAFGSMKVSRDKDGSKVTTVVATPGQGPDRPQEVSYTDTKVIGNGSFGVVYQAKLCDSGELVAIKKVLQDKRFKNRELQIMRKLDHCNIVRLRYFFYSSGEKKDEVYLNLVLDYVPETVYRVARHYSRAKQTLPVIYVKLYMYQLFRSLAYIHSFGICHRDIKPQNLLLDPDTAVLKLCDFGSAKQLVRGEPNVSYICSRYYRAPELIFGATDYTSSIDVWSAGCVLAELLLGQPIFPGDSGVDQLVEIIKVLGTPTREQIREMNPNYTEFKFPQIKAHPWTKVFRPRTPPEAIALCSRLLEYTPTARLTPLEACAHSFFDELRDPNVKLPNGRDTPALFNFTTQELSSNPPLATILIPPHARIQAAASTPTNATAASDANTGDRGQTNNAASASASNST
# Sequence of CLK2 (P49760 whole entry): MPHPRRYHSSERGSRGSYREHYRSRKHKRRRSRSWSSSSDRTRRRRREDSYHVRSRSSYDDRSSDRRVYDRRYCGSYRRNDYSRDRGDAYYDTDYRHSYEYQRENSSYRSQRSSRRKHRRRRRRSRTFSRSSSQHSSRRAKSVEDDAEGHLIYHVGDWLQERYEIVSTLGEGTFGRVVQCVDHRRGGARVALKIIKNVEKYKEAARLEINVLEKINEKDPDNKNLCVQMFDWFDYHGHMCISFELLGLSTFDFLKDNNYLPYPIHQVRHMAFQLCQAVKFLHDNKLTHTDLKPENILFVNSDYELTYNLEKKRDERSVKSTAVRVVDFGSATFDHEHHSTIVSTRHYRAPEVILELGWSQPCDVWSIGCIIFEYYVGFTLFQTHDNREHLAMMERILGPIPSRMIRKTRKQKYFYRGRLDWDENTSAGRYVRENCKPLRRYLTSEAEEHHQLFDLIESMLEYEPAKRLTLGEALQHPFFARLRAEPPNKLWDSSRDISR
# Sequence of IR (P06213 28-1382): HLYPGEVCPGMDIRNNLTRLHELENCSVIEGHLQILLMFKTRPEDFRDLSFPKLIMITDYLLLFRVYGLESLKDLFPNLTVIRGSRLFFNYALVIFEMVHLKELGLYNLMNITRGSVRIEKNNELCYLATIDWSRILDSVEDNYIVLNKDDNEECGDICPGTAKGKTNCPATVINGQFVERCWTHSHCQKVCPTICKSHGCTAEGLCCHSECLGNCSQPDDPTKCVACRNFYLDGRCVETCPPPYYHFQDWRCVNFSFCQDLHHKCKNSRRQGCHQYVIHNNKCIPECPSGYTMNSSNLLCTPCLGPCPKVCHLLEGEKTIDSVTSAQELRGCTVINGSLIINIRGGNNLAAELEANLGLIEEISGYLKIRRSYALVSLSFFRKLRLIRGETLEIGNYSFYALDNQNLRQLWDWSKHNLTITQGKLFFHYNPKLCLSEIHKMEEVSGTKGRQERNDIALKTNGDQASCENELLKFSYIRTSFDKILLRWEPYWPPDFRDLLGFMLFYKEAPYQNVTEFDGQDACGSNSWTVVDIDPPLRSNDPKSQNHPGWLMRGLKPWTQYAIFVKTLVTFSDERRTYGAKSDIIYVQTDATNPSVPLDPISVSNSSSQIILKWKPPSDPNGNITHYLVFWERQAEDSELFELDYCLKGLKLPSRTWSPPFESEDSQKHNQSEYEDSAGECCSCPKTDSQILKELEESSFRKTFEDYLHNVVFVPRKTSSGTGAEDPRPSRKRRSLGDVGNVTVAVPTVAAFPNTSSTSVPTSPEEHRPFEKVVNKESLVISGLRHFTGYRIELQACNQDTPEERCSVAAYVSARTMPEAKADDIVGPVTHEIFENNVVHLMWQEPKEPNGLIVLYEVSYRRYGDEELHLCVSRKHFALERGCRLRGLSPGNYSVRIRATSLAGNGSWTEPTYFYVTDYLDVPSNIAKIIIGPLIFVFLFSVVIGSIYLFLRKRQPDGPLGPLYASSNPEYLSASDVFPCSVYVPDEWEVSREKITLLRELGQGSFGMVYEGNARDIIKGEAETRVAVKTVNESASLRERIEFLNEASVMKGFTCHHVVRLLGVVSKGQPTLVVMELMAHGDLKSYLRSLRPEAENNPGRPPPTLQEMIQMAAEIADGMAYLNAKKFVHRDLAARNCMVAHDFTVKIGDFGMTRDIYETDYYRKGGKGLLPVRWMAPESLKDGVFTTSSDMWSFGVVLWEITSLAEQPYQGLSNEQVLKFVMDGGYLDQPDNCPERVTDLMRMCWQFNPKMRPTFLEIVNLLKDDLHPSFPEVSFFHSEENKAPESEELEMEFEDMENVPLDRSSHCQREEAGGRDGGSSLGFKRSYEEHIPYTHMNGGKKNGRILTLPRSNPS
smiles,measurement,setting,value
"C=CS(=O)(=O)c1ccc(Nc2nc(OCC3CCCCC3)c3nc[nH]c3n2)cc1 [NU6300, 6-(cyclohexylmethoxy)-N-(4-(vinylsulfonyl)phenyl)-9H-purin-2-amine]",remaining activity at 0.5 µM,GSK3b; [1],81%
same,remaining activity at 0.5 µM,GSK3b; [2],80%
same,remaining activity at 0.5 µM,MST4; [1],94%
same,remaining activity at 0.5 µM,MST4; [2],74%
same,remaining activity at 0.5 µM,TTK; [1],47%
same,remaining activity at 0.5 µM,TTK; [2],41%
same,remaining activity at 0.5 µM,CLK2; [1],104%
same,remaining activity at 0.5 µM,CLK2; [2],35%
same,remaining activity at 0.5 µM,IR; [1],58%
same,remaining activity at 0.5 µM,IR; [2],48%
same,remaining activity at 0.5 µM,CHK1; [1],42%
same,remaining activity at 0.5 µM,CHK1; [2],72%
